Source: patent publication US10836763B2, “5 to 7 membered heterocyclic amides as JAK inhibitors” (priority 2018, dated 2020)

Columns and labels:
JAK2 = JAK2 (Homo sapiens (Human), UniProt O60674); assay: Biochemical JAK kinase assay (LanthaScreen), JAK2
Experimental: (§1) Assay 1: Biochemical JAK Kinase Assays
(§2) A panel of four LanthaScreen JAK biochemical assays (JAK1, 2, 3 and Tyk2) were carried in a common kinase reaction buffer (50 mM HEPES, pH 7.5, 0.01% Brij-35, 10 mM MgCl2, and 1 mM EGTA). Recombinant GST-tagged JAK enzymes and a GFP-tagged STAT1 peptide substrate were obtained from Life Technologies.
(§3) Serially diluted compounds were pre-incubated with each of the four JAK enzymes and the substrate in white 384-well microplates (Corning) at ambient temperature for 1 h. ATP was subsequently added to initiate the kinase reactions in 10 μL total volume, with 1% DMSO. […] Kinase reactions were allowed to proceed for 1 hour at ambient temperature before a 10 μL preparation of EDTA (10 mM final concentration) and Tb-anti-pSTAT1 (pTyr701) antibody (Life Technologies, 2 nM final concentration) in TR-FRET dilution buffer (Life Technologies) was added. The plates were allowed to incubate at ambient temperature for 1 h before being read on the EnVision reader (Perkin Elmer). Emission ratio signals (520 nm/495 nm) were recorded and utilized to calculate the percent inhibition values based on DMSO and background controls.
(§4) For dose-response analysis, percent inhibition data were plotted vs. compound concentrations, and IC50 values were determined from a 4-parameter robust fit model with the Prism software (GraphPad Software). Results were expressed as pIC50 (negative logarithm of IC50) and subsequently converted to pKi (negative logarithm of dissociation constant, Ki) using the Cheng-Prusoff equation.

Tyk2 = Tyk2 (Homo sapiens (Human), UniProt P29597); assay: Biochemical JAK kinase assay (LanthaScreen), Tyk2
Sequence of Tyk2 (P29597 whole entry): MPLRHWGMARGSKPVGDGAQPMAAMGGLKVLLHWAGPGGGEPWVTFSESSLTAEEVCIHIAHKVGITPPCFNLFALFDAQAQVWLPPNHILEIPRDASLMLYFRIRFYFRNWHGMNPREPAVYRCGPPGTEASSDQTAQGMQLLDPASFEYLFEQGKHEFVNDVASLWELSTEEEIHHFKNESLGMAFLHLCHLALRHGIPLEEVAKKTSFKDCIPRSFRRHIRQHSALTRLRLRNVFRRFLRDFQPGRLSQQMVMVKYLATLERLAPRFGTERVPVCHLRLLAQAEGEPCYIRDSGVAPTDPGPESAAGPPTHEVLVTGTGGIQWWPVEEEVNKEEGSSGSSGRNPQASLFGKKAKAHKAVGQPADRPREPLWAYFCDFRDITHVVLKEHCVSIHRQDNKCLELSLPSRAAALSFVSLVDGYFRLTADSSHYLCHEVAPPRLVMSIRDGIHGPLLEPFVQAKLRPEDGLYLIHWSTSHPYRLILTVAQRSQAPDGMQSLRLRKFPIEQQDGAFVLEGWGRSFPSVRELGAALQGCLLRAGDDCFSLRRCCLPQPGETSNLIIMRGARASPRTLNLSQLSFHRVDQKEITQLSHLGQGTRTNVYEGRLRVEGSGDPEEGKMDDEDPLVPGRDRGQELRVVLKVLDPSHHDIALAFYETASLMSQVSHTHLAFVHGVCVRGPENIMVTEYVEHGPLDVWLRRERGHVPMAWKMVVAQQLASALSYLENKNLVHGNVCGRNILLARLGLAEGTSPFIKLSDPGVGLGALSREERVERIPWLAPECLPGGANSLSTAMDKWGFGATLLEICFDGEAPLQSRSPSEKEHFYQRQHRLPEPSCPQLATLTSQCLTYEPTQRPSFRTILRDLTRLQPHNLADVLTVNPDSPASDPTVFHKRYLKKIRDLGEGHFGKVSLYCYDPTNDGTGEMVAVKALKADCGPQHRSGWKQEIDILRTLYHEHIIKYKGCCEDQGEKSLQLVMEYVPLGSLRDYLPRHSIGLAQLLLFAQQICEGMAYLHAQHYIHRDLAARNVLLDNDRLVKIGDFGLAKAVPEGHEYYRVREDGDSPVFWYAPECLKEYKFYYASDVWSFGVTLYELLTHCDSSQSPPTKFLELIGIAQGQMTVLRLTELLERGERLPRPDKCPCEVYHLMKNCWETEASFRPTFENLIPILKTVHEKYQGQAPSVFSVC
Experimental: as §1, §2, §3, §4

Lung S9 metabolism = format: in vitro ADME, human; details: for Compound Remaining at 60 min (%) / microsomal CLint at 1 µM: human lung S9, 1 μM compound, 1 mg/mL S9 protein, NADPH and PAPS; for microsomal CLint at 1 µM: lung S9 fraction, pH 7.4, read-out: Clearance; for Sulfate Appearance: qualitative, O-sulfate metabolite peak in human lung S9
Experimental: Assay 5: Lung S9 Metabolism […] Lung S9 fractions from human (lot 1410245) were purchased from XenoTech LLC (Lenexa, Kans.). NADPH (Sigma Aldrich, N1630) and 3-phosphoadenosine 5-phosphosulfate (PAPS) (Sigma Aldrich, A1651) were purchased from Sigma Aldrich (St. Louis, Mo.). Acetonitrile and water were obtained from VWR (Radnor, Pa.) and were of HPLC grade or better. Raloxifene and formic acid was purchased from Sigma Aldrich (St. Louis, Mo.). Lung S9 incubations were performed in a water bath at 37° C. in a 96-well polypropylene plate. […] All samples were centrifuged at 2250 g for 10 minutes at 5° C. Supernatant (50 μL) was taken from the centrifuged samples and diluted into 100 μL HPLC water containing internal standard. […] Mobile Phase A consisted of Water+0.2% formic acid and Mobile Phase B consisted of acetonitrile+0.2% formic acid. Peak integration was accomplished using Gubbs GMSU software (Gubbs Inc., Alpharetta, Ga.). For each sample, peak area ratios were calculated by dividing the analyte peak area by the internal standard peak area. […] Determination of sulfate metabolite formation was made qualitatively by observation of early-eluting peak in the parent ion channel which, based on historical internal data, corresponded to the O-sulfate metabolite of each parent compound.

[1] = system: IL-2 stimulated STAT5 phosphorylation in Tall-1 human T cell line; assay: Inhibition of IL-2 stimulated pSTAT5 in Tall-1 T cells; format: cell-based; details: TALL-1, 0.5 h, IL-2 300 ng/mL, 30 min, pSTAT5 AlphaLisa, read-out: Tall-1 pIC50 (converted)
Experimental: Assay 2: Inhibition of IL-2 Stimulated pSTAT5 in Tall-1 T Cells
The potency of test compounds for inhibition of interleukin-2 (IL-2) stimulated STAT5 phosphorylation was measured in the Tall-1 human T cell line (DSMZ) using AlphaLisa.
Phosphorylated STAT5 was measured via the AlphaLISA SureFire Ultra pSTAT5 (Tyr694/699) kit (PerkinElmer).
Compounds were serially diluted in DMSO and dispensed acoustically to empty wells. Assay media (phenol red-free DMEM (Life Technologies) supplemented with 10% FBS (ATCC)) was dispensed (4 μL/well) and plates shaken at 900 rpm for 10 mins. Cells were seeded at 45,000 cells/well in assay media (4 μL/well), and incubated at 37° C., 5% CO2 for 1 hour, followed by the addition of IL-2 (R&D Systems; final concentration 300 ng/mL) in pre-warmed assay media (4 μL) for 30 minutes. […] The lysate was shaken at 900 rpm for 10 minutes at room temperature (RT). Phosphorylated STAT5 was measured via the pSTAT5 AlphaLisa kit (PerkinElmer). Freshly prepared acceptor bead mixture was dispensed onto lysate (5 μL) under green filtered <100 lux light. Plates were shaken at 900 rpm for 2 mins, briefly spun down, and incubated for 2 hrs at RT in the dark. Donor beads were dispensed (5 μL) under green filtered <100 lux light. Plates were shaken at 900 rpm for 2 minutes, briefly spun down, and incubated overnight at RT in the dark. Luminescence was measured with excitation at 689 nm and emission at 570 nm using an EnVision plate reader (PerkinElmer) under green filtered <100 lux light.
To determine the inhibitory potency of test compounds in response to IL-2, the average emission intensity of beads bound to pSTAT5 was measured in a human T cell line. IC50 values were determined from analysis of the inhibition curves of signal intensity versus compound concentration. Data are expressed as pIC50 (negative decadic logarithm IC50) values (mean±standard deviation).

[2] = system: TSLP-evoked TARC release in human peripheral blood mononuclear cells; assay: Inhibition of TSLP-evoked TARC release in human peripheral blood mononuclear cells; format: cell-based; details: PBMC from 3 to 5 donors, TSLP 10 ng/mL, 48 hours, TARC ELISA, read-out: pIC50 ± st. dev., inhibition of TSLP-evoked TARC release (converted)
From the text: Assay 4: Inhibition of TSLP-Evoked TARC Release in Human Peripheral Blood Mononuclear Cells
Thymic stromal lymphopoietin (TSLP) and thymus and activation-regulated chemokine (TARC) are overexpressed in asthmatic airways, and correlate with disease severity. In the lungs, TSLP may be released by bronchial epithelial cells in response to allergens and viral infections. TSLP signals through an IL-7Rα/TSLPR heterodimer found in a broad range of tissues and cell types, including epithelial cells, endothelial cells, neutrophils, macrophages, and mast cells. The binding of TSLP to its receptor induces a conformational change that activates JAK1 and JAK2 to phosphorylate various transcription factors, including STAT3 and STAT5. In immune cells, this triggers a cascade of intracellular events that result in cell proliferation, anti-apoptosis, dendritic cell migration, and production of Th2 cytokines and chemokines. In peripheral blood mononuclear cells (PBMC), TSLP has a proinflammatory effect by activating myeloid dendritic cells to attract and stimulate T cells, a process mediated by the chemoattractant TARC.
The potencies of the test compounds were measured for inhibition of TARC release.
PBMC aliquots (previously isolated from whole blood and frozen in aliquots at −80° C.) from 3 to 5 donors were thawed at 37° C. and added dropwise to 40 mL pre-warmed, sterile-filtered, complete RPMI media in 50 mL Falcon tubes. Cells were pelleted and resuspended in complete media at 2.24×10^6 cells/mL. Cells were seeded at […] (190,000 cells) per well in a tissue culture treated 96-well flat bottom microplate. Cells were allowed to rest for 1 hour at 37° C. with 5% CO2.
Compounds were received as 10 mM stock solutions in DMSO. 3.7-fold serial dilutions were performed to generate 9 concentrations of test compound in DMSO at 300× the final assay test concentration. […] After the 1 hour rest period, 95 µL of 2× compound was added to each well of PBMC, for a final assay concentration range of 33.33 μM to […]. 95 μL of 0.2% DMSO in complete media was added to the untreated control wells. Cells were pre-treated with compound for 1 hour at 37° C. with 5% CO2 prior to stimulation.
Recombinant human TSLP protein was reconstituted at 10 μg/mL in sterile DPBS with 0.1% BSA and stored in aliquots at −20° C. Immediately prior to use, an aliquot was thawed and prepared at 20× the final assay concentration in complete media. 10 μL of 20×TSLP was added to each well of PBMC, for a final assay concentration of 10 ng/mL. 10 μL of complete media was added to the unstimulated control wells. Cells were stimulated in the presence of compound for 48 hours at 37° C. with 5% CO2.
Following stimulation, the cell culture supernatants were harvested and TARC levels were detected by enzyme-linked immunosorbent assay (ELISA), using Human CCL17/TARC Quantikine ELISA Kit (R&D Systems # DDN00) according to the manufacturer's instructions.
For dose response analysis, the log [test compound (M)] was plotted versus the percent response values for each donor, and IC50 values were determined using a nonlinear regression analysis with GraphPad Prism Software using the 4-parameter sigmoidal dose-response algorithm with variable slope. Data are expressed as mean pIC50 (negative decadic logarithm IC50) values calculated from pIC50 values of individual donors and rounded to one decimal place.

JAK1 = JAK1 (Homo sapiens (Human), UniProt P23458); assay: Co-crystal structure with JAK1; details: resolution of 2.28 Å
Sequence of JAK1 (P23458 whole entry): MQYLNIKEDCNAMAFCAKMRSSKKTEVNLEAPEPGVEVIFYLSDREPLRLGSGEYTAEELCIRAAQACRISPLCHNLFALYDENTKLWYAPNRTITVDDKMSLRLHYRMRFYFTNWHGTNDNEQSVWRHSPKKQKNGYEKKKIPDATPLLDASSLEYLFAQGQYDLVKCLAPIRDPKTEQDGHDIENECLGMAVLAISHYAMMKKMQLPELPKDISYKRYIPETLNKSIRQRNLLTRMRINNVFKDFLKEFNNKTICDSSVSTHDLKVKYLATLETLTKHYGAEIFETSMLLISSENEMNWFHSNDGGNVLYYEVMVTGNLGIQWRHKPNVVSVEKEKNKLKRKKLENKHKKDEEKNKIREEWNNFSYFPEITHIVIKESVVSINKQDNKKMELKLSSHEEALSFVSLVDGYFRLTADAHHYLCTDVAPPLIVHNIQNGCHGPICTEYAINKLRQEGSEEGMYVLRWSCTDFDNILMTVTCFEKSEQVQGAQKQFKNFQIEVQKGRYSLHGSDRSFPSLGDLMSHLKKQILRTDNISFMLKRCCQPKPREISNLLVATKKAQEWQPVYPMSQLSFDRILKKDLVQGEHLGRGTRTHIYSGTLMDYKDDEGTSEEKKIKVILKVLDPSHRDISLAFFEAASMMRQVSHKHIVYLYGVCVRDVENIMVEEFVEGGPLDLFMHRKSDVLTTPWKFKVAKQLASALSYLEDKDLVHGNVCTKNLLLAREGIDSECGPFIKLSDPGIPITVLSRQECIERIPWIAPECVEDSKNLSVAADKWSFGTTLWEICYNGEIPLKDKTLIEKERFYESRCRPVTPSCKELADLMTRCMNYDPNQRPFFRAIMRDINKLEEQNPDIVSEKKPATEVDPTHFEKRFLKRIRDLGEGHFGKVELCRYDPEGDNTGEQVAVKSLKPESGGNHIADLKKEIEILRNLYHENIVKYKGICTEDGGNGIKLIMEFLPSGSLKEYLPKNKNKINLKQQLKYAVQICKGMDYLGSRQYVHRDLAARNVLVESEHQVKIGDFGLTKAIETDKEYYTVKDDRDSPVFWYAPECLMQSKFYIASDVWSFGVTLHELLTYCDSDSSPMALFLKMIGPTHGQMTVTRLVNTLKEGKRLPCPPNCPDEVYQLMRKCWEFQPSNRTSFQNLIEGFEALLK
From the text: A co-crystal structure was obtained of compound D-1 bound to human JAK1 at a resolution of 2.28 Å. […] Seven specific hydrogen bonding interactions were identified based upon a distance of 3.5 Å or less between donor and acceptor atoms. Of particular note, a hydrogen bonding interaction was identified between the carbonyl of the exocyclic amide of compound D-1 and the sidechain of Arg879 of JAK1. A similar interaction can be expected for the compounds of the invention.

Sequence of JAK2 (O60674 whole entry): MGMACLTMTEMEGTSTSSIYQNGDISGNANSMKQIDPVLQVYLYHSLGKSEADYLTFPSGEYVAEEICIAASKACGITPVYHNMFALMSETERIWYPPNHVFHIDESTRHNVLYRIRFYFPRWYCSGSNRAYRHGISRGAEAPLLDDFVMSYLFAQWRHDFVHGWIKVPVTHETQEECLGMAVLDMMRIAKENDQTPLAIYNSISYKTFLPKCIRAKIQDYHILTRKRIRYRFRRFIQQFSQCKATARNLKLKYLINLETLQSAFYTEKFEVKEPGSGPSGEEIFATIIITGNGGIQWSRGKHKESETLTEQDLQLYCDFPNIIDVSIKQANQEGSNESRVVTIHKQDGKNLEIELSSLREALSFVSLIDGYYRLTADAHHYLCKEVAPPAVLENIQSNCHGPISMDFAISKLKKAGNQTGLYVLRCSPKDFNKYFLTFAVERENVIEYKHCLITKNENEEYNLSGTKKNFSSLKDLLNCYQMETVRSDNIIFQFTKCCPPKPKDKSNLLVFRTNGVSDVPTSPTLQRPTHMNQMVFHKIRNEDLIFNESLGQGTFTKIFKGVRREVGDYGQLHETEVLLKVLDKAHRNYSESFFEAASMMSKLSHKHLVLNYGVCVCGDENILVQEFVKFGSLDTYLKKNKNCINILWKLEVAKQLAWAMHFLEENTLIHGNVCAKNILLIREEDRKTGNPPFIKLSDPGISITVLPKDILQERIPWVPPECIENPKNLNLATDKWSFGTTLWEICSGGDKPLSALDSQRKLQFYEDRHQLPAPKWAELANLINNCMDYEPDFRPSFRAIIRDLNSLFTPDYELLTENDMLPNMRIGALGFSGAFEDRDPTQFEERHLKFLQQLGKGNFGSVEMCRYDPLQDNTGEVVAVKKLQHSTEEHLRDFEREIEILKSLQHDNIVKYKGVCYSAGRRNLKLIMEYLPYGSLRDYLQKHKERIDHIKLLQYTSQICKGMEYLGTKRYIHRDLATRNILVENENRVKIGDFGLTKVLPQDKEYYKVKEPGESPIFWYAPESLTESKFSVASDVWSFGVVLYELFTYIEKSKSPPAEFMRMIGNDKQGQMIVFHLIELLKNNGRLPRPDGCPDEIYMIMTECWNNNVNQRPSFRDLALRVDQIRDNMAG

| IC50 [1] | IC50 [2] | binding site in co-crystal structure (JAK1) | Structure (SMILES) | JAK2 pKi (JAK2) | Tyk2 pKi (Tyk2) | Compound Remaining at 60 min (%) (Lung S9 metabolism) | microsomal CLint at 1 µM (Lung S9 metabolism) | Sulfate Appearance (Lung S9 metabolism) |
| --- | --- | --- | --- | --- | --- | --- | --- | --- |
| – | – | – | CCc1cc(O)ccc1-c1ccc2c(-c3nc4c([nH]3)CN(C)[C@H](C(=O)N3CCN(C)C[C@@H]3C)C4)n[nH]c2c1 [Compound 3, ((S)-2,4-dimethylpiperazin-1-yl)((S)-2-(6-(2-ethyl-4-hydroxyphenyl)-1H-indazol-3-yl)-5-methyl-4,5,6,7-tetrahydro-3H-imidazo[4,5-c]pyridin-6-yl)methanone] | 10.4 | 9.3 | 86% | 2.6 µL/min/mg | Yes |
| 2.51 nM | 158 nM | – | CCc1cc(O)c(F)cc1-c1ccc2c(-c3nc4c([nH]3)CN(C(C)C)[C@H](C(=O)N3CC[C@H](N(C)C)C3)C4)n[nH]c2c1 [Compound C-6, reference compound] | – | – | 5% | 51.4 µL/min/mg | Yes |
| – | – | bind in the ATP binding site | CCc1cc(O)c(F)cc1-c1ccc2c(-c3nc4c([nH]3)CN(C(C)C)[C@H](C(=O)N3CC(N(C)C)C3)C4)n[nH]c2c1 [Compound D-1, (S)-(3-(dimethylamino)azetidin-1-yl)(2-(6-(2-ethyl-5-fluoro-4-hydroxyphenyl)-1H-indazol-3-yl)-5-isopropyl-4,5,6,7-tetrahydro-3H-imidazo[4,5-c]pyridin-6-yl)methanone] | – | – | – | – | – |
